We go through 10 compounds from ChEMBL document CHEMBL2407091, “Effect of the orthoquinone moiety in 9,10-phenanthrenequinone on its ability to induce apoptosis in HCT-116 and HL-60 cells” (2013).

Test [1] relates to HL-60. The experiment in a line: Cytotoxicity against human HL60 cells after 24 hrs by WST-1 assay. Conditions: HL-60, 24 h, read-out: LC50 (the source's name). In kind it is functional. For orientation: Tetrazolium assays rely on reduction of a dye to a coloured formazan, in cell work by metabolically active cells.
Test [2] deals with HL-60. The experiment in a line: Induction of apoptosis in human HL60 cells assessed as caspase-3 activation at 10 uM after 4 hrs by FACS flow cytometric analysis. Format: functional, cell-based.
For test [3], the system named is HL-60. Put plainly: Induction of apoptosis in human HL60 cells assessed as DNA fragmentation at 10 uM after 6 hrs by electrophoretic analysis. Format: functional, cell-based.
In test [4] the test system is HCT-116. Put plainly: Cytotoxicity against human HCT116 cells after 24 hrs by MTT assay. Format: functional. To be noted: HCT-116, 24 h, read-out: LC50 (the source's name).
The subject of test [5] is HL-60. The experiment in a line: Cytotoxicity against human HL60 cells at 5 uM after 24 hrs by WST-1 assay. In kind it is functional, cell-based.
Test [6] has as its system HCT-116. The experiment in a line: Cytotoxicity against human HCT116 cells at >2.5 uM after 24 hrs by MTT assay. In kind it is functional, cell-based.

The source made the active and inactive calls. The calls are words filed in the database; no cut-off is given here.

With `O=C1C(=O)c2cccnc2-c2ncccc21`, the results for the CC50 in test [1] and in test [4] were 1.57 µM and 0.73 µM, respectively. Further, the result in test [2] and in test [3] was Active.
On to `Oc1cc2ccccc2c2ccccc12`, for which the CC50 in test [1] and in test [4] was > 10 µM each time.
In the case of `O=c1c(=O)c2cccc3ccc4cccc1c4c32`, the values for the CC50 in test [1] and in test [4] were 3.41 µM and 0.86 µM, respectively. Further, the outcome in test [2] and in test [3] was Active.
With `O=c1[nH]c2ccccc2c2ccccc12`, the CC50 in test [1] and in test [4] was > 10 µM in each case.
For `O=C1C=Cc2ccccc2C1=O` [1,2-NAPHTHOQUINONE], the CC50 in test [1] came to 7.14 µM; in test [4], 9.2 µM.
Regarding `O=C1C(=O)c2ccccc2-c2ccccc21` [9,10-PHENANTHRENEQUINONE], the outcome in test [5], in test [6], in test [2] and in test [3] was Active. The CC50 stood at 3.38 µM in test [1] and 1.43 µM in test [4].
Take `O=C1C(=O)c2cccc3cccc1c23` [ACENAPHTHOQUINONE]: the CC50 in test [1] and in test [4] was > 10 µM each time.
Consider `O=C(C(=O)c1ccccc1)c1ccccc1` [BENZIL], for which the CC50 in test [1] and in test [4] was > 10 µM throughout.
Turning to `c1ccc2c(c1)CCc1ccccc1-2` [DIHYDROPHENANTHRENE], the CC50 in test [1] and in test [4] was > 10 µM throughout.
As for `c1ccc2c(c1)ccc1ccccc12` [PHENANTHRENE], the CC50 in test [1] and in test [4] was > 10 µM throughout.
